Active and inactive are the calls of the source.
How the values were obtained:
ORF 73 = target: T1, ORF 73 (Human herpesvirus 8, UniProt O40947); experiment: KSHV LANA DNA-binding disruption – biochemical, fluorescence polarization, cherry-picked samples, dose response (AID 504725); parameters: species or system Human gammaherpesvirus 8;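 note: fluorescence polarization of a labeled DNA duplex reporting LANA DNA binding; potency is for inhibitors that block LANA binding to the DNA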
T1 sequence (O40947 whole entry): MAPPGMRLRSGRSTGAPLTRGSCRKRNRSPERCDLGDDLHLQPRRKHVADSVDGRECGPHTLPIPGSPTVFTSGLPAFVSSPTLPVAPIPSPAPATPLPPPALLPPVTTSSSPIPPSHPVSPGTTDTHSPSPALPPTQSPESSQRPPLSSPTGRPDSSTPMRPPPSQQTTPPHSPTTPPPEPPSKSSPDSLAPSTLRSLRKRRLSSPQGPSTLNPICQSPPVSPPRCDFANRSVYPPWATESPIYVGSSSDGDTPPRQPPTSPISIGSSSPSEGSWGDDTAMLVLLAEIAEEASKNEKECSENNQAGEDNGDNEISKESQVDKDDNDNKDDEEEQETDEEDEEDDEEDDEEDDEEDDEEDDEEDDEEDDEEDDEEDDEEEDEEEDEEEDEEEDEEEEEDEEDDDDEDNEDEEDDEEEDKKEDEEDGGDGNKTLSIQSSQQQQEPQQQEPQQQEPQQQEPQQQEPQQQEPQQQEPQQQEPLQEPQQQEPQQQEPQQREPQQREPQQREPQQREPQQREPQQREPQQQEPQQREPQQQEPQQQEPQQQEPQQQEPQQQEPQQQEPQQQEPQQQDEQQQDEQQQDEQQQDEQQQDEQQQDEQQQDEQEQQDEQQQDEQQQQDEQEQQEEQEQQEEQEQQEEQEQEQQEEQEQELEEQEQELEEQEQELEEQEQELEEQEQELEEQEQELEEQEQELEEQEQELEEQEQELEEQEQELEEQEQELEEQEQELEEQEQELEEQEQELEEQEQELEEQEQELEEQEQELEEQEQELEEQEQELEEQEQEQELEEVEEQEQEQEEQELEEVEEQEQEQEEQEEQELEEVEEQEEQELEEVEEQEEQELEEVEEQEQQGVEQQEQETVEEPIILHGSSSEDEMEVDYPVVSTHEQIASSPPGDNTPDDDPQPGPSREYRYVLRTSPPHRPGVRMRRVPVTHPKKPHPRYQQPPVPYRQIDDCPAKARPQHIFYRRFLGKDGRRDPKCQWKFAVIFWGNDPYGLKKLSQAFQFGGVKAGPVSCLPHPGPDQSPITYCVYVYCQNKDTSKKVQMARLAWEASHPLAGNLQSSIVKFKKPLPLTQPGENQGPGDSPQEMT

Bcl-2-related protein A1 = target: T2, Bcl-2-related protein A1 (Mus musculus, UniProt Q07440); format: functional;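 note: confirmatory dose–response counterscreen on Bfl-1, used to check hits from a UBC13 polyubiquitin inhibitor campaign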
T2 sequence (Q07440 whole entry): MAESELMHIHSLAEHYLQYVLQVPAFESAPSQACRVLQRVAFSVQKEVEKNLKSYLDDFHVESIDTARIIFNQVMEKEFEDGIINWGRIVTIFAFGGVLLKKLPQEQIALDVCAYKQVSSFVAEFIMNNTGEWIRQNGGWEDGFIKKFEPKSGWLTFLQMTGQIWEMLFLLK

[1] = target: T3, Ubiquitin-conjugating enzyme E2 N (Homo sapiens, UniProt P61088); format: functional
T3 sequence (P61088 whole entry): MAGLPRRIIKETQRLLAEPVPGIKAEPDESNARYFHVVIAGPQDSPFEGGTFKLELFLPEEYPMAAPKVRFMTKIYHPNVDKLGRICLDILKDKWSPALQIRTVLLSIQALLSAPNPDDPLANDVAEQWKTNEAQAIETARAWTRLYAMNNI

[2] = target: T3, Ubiquitin-conjugating enzyme E2 N; format: functional; remark: listed apart in the source
[3] = target: T4, Short transient receptor potential channel 4 (Mus musculus, UniProt Q9QUQ5); experiment: calcium entry via TRPC4 opening agents – cell-based, HEK293 TRPC4/mu-opioid, Fluo-4 calcium, dose response (AID 434937); format: functional
T4 sequence (Q9QUQ5 whole entry): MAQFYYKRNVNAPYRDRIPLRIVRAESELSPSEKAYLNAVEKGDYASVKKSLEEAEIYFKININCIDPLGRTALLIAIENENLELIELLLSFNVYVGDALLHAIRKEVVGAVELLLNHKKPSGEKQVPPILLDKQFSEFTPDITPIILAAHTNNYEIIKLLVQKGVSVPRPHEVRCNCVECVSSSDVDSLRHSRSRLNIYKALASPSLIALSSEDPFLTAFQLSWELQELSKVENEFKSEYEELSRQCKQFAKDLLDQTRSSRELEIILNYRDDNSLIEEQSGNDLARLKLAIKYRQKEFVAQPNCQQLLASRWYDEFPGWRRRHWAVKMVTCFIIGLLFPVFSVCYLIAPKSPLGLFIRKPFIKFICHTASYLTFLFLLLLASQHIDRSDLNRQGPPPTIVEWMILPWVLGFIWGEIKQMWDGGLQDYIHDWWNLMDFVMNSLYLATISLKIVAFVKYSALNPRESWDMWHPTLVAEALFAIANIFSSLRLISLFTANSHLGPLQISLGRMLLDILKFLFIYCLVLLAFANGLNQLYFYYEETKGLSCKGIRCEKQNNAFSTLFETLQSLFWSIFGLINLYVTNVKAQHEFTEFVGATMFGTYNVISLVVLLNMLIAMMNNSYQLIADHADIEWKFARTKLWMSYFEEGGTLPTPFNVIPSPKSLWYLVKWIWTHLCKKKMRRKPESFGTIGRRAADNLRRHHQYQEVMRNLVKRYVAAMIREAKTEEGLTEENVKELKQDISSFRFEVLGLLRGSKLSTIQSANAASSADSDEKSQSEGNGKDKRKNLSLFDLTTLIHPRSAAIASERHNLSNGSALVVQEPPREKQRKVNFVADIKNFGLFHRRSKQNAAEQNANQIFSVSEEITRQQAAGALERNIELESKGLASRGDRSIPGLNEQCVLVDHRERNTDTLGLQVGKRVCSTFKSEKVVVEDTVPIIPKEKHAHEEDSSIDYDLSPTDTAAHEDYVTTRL

[4] = target: Delta-type opioid receptor (Homo sapiens, UniProt P41143); experiment: Counterscreen for agonists of heterodimerization of the mu 1 (OPRM1) and delta 1 (OPRD1) opioid receptors: Luminescence-based cell-based high throughput dose response assay to identify agonists of OPRD1 homodimerization. [Related pubchem assays (depositor defined):AID504326, AID504355, AID504692, AID504904, AID504905]; format: functional
Mu-type opioid receptor = Mu-type opioid receptor (Homo sapiens, UniProt P35372); experiment: Counterscreen for agonists of heterodimerization of the mu 1 (OPRM1) and delta 1 (OPRD1) opioid receptors: Luminescence-based cell-based high throughput dose response assay to identify agonists of OPRM1 homodimerization.; format: functional;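 note: U2OS cells expressing OPRM1 and beta-arrestin as split beta-galactosidase partners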
[5] = target: 5-hydroxytryptamine receptor 5A (Homo sapiens, UniProt P47898); experiment: Counterscreen for agonists of OPRM1-OPRD1 heterodimerization: luminescence-based cell-based high throughput dose response assay to identify agonists of 5-hydroxytryptamine (serotonin) 5A receptor (HTR5A). [Related pubchem assays (depositor defined):AID504326, AID504355, AID504692, AID504904, AID504905]; format: functional
Sequence of 5-hydroxytryptamine receptor 5A (P47898 whole entry): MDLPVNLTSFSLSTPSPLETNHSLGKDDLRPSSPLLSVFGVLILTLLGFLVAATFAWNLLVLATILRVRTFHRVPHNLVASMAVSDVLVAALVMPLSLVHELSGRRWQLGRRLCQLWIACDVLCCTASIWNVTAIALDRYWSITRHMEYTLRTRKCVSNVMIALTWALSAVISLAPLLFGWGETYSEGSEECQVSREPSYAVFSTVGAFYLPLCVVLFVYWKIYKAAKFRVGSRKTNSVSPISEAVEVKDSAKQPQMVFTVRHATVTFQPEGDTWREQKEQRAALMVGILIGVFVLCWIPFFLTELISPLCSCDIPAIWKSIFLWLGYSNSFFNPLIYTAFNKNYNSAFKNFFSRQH

Sequence of Mu-type opioid receptor (P35372 whole entry): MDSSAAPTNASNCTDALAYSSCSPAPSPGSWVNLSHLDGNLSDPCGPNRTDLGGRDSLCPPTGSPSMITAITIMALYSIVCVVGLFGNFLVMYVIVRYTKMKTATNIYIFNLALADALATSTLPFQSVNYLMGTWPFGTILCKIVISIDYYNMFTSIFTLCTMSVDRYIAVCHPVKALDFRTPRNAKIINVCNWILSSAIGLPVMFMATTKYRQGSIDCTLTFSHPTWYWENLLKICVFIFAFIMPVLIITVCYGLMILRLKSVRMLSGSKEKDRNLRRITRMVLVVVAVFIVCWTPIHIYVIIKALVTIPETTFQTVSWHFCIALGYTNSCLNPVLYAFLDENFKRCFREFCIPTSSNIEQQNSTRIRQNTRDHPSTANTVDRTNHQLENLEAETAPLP
Sequence of Delta-type opioid receptor (P41143 whole entry): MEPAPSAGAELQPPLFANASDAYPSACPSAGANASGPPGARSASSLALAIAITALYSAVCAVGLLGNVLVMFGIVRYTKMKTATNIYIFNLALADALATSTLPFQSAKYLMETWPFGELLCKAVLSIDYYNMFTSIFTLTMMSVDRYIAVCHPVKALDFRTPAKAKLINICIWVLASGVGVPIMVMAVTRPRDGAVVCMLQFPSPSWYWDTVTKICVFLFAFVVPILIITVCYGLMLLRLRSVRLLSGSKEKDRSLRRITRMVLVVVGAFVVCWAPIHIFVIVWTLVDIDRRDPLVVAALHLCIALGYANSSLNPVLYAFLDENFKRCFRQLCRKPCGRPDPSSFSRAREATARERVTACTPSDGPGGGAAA

Row | SMILES | AC50 (ORF 73) | IC50 (Bcl-2-related protein A1) | IC50 [1] | IC50 [2] | EC50 [3] | EC50 [4] | EC50 (Mu-type opioid receptor) | EC50 [5]
1 | Cc1cc(O)c2c(n1)c(C)cc1[nH]c(C)c(C)c12 | 42.3 µM (active) | – | – | – | – | – | – | –
2 | C#CCOCCOCCOCCNc1nc(N2CCN(C(=O)[C@H](CCCCN)n3cc(CN)nn3)CC2)nc(N2CCN(C(=O)[C@H](CCCCN)n3cc([C@@H](N)[C@H](C)CC)nn3)CC2)n1 | – | > 20 µM (inactive) | 4.49 µM (active) | 3.13 µM (active) | – | – | – | –
3 | CCC(=O)C(CCN1CCOCC1)(c1ccccc1)c1ccccc1 | – | – | – | – | 0.376 µM (active) | > 92.5 µM (inactive) | 12 µM (inactive) | > 92.5 µM (inactive)
4 | CCOC(=O)C1(Cc2ccccc2)CCN(Cc2cccn2-c2cccnc2)CC1 | – | – | – | – | 0.841 µM (active) | > 92.5 µM (inactive) | > 92.5 µM (inactive) | > 92.5 µM (inactive)
5 | Cc1nc(N)sc1C(=O)N/N=C/c1cccnc1 | – | > 20 µM (inactive) | 1.68 µM (active) | 1.89 µM (active) | – | – | – | –
